These results are taken from PubChem BioAssay (NCI).

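Test compounds were applied to cells in 96-well plates for 48 hours at 5 doses. GI50 marks 50% less growth. TGI marks complete inhibition of growth.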

Test systems include MOLT-4 leukemia; SN12C renal; HCC-2998 colon; NCI-H522 lung; OVCAR-4 ovarian; OVCAR-3 ovarian; SF-295 CNS; U251 CNS; HCT-15 colon; M14 melanoma.
Holding throughout (assay): inhibition of tumour cell growth, NCI panel, 48 h

Regarding `COc1ccccc1Nc1cc(O)c2c(=O)cc(-c3ccccc3)oc2c1`, the GI50 was 4.08 µM in the test on MOLT-4 leukemia; 3.5 µM in the test with SN12C renal; 6.07 µM in the test with HCC-2998 colon; 2.67 µM in the test with NCI-H522 lung; 4.49 µM in the test with OVCAR-4 ovarian; 2.05 µM in the test with OVCAR-3 ovarian. Besides, the GI50 with SF-295 CNS is 2.98 µM; in the test with U251 CNS it was 3.63 µM; in the test with HCT-15 colon, 1.65 µM. For the same molecule, the TGI was > 100 µM with MOLT-4 leukemia; 17.6 µM with SN12C renal; > 100 µM with HCC-2998 colon; 27.1 µM in the test with NCI-H522 lung; 47.8 µM with OVCAR-4 ovarian; 5.2 µM in the test on OVCAR-3 ovarian. For the same molecule, the TGI in the test on SF-295 CNS is 13.2 µM; with U251 CNS, > 100 µM; with HCT-15 colon, > 100 µM.
Regarding `CN[C@H]1CN(c2ccc3c(=O)c(C(=O)O)cn(-c4nccs4)c3n2)C[C@@H]1OC`, the GI50 was 0.126 µM with MOLT-4 leukemia; 0.364 µM with SN12C renal; 0.856 µM in the test with HCC-2998 colon; 0.733 µM in the test with NCI-H522 lung; 0.783 µM in the test on M14 melanoma; 2.27 µM in the test with OVCAR-4 ovarian. The GI50 with OVCAR-3 ovarian is 1.82 µM; in the test on SF-295 CNS, 0.332 µM; in the test with U251 CNS, 0.42 µM; in the test on HCT-15 colon it was 1.13 µM. Moreover, the TGI in the test on MOLT-4 leukemia turned out to be 1 µM; in the test on SN12C renal, 5.69 µM; with HCC-2998 colon, 3.58 µM; with NCI-H522 lung, 2.98 µM; in the test on M14 melanoma, 2.34 µM; in the test with OVCAR-4 ovarian, 9.22 µM. The TGI is 6.48 µM with OVCAR-3 ovarian, 2.37 µM in the test with SF-295 CNS, 7.23 µM with U251 CNS and 7.72 µM with HCT-15 colon.
With `CSc1ccc2c(cc1=O)[C@@H](NC(=O)c1cccc([N+](=O)[O-])c1)CCc1cc(O)c(O)c(O)c1-2`, the TGI with MOLT-4 leukemia was 53.1 µM; in the test with SN12C renal, 88.9 µM; with HCC-2998 colon, > 100 µM; with NCI-H522 lung, 68.2 µM; in the test with M14 melanoma, > 100 µM; in the test with OVCAR-4 ovarian, > 100 µM. In addition, the TGI with OVCAR-3 ovarian was > 100 µM; in the test with SF-295 CNS it was > 100 µM; with U251 CNS it was 51.5 µM; in the test on HCT-15 colon, > 100 µM.
As for `CNC(=O)c1ccc(N2C(=S)N(c3cnc(C#N)c(C(F)(F)F)c3)C(=O)C23CCC3)cc1F`, the GI50 with MOLT-4 leukemia was 61.9 µM; in the test on SN12C renal, > 100 µM; with HCC-2998 colon it was > 100 µM; in the test with NCI-H522 lung, > 100 µM; in the test with M14 melanoma, > 100 µM; in the test with OVCAR-4 ovarian, > 79.2 µM. Also, the GI50 with OVCAR-3 ovarian, in the test with SF-295 CNS, in the test with U251 CNS and with HCT-15 colon was > 100 µM in each case. Further, the TGI with MOLT-4 leukemia, with SN12C renal, in the test on HCC-2998 colon, with NCI-H522 lung, in the test on M14 melanoma and in the test on OVCAR-4 ovarian was > 100 µM throughout. The TGI with OVCAR-3 ovarian, in the test on SF-295 CNS, in the test on U251 CNS and in the test with HCT-15 colon was > 100 µM each time.
On to `Cc1cc2c(C(=O)NC[C@H](C)c3ccccc3)c(O)c(O)cc2c(O)c1-c1c(C)cc2c(C(=O)NC[C@H](C)c3ccccc3)c(O)c(O)cc2c1O`, for which the GI50 is 0.199 µM in the test on MOLT-4 leukemia; 0.436 µM in the test on SN12C renal; 0.932 µM in the test on HCC-2998 colon; 0.288 µM with NCI-H522 lung; 0.438 µM in the test on M14 melanoma; 0.446 µM in the test with OVCAR-4 ovarian. Moreover, the GI50 in the test with OVCAR-3 ovarian is 0.306 µM; in the test on SF-295 CNS it was 0.131 µM; with U251 CNS, 0.074 µM; with HCT-15 colon it was 0.208 µM. For the same molecule, the TGI was found to be 7.8 µM in the test on MOLT-4 leukemia; 10.6 µM in the test with SN12C renal; 3.08 µM in the test with HCC-2998 colon; 1.18 µM with NCI-H522 lung; 5.72 µM with M14 melanoma; 8.3 µM in the test with OVCAR-4 ovarian. Also, the TGI was determined as 1.55 µM in the test with OVCAR-3 ovarian, 0.702 µM in the test with SF-295 CNS, 1.67 µM in the test on U251 CNS and 12.6 µM in the test with HCT-15 colon.
In the case of `CCc1nc(N)nc(N)c1-c1ccc(Cl)c([N+](=O)[O-])c1`, the TGI in the test with MOLT-4 leukemia was > 65.2 µM; in the test with SN12C renal, > 100 µM; in the test with HCC-2998 colon, > 100 µM; in the test with NCI-H522 lung, > 100 µM; with M14 melanoma, 98.8 µM; with OVCAR-4 ovarian it was > 100 µM. For the same molecule, the TGI in the test with OVCAR-3 ovarian is > 100 µM; in the test with SF-295 CNS it was > 70.4 µM; in the test on U251 CNS it was > 100 µM; with HCT-15 colon it was > 100 µM.
On to `CNC(=O)c1c(C)oc2cc(Oc3ncnc4cc(OC)c(OC)cc34)ccc12`, for which the GI50 in the test on MOLT-4 leukemia, in the test on SN12C renal, in the test on HCC-2998 colon, in the test on NCI-H522 lung, with OVCAR-4 ovarian and with OVCAR-3 ovarian was > 100 µM in each case. In addition, the results for the GI50 in the test on SF-295 CNS, in the test on U251 CNS and with HCT-15 colon were > 100 µM, 5.51 µM and > 100 µM, respectively. Moreover, the TGI in the test on MOLT-4 leukemia, with SN12C renal, with HCC-2998 colon, in the test on NCI-H522 lung, in the test on OVCAR-4 ovarian and in the test on OVCAR-3 ovarian was > 100 µM throughout. The TGI in the test on SF-295 CNS, in the test on U251 CNS and with HCT-15 colon was > 100 µM in each case.
For the molecule `COc1ccc(C(c2ccccc2)(c2ccc(OC)cc2)N2C(=O)NC3C(CCCCC(=O)NCCCCCCOP(OCCC#N)N(C(C)C)C(C)C)SCC32)cc1` (stereo not drawn), the TGI in the test on MOLT-4 leukemia is 28.5 µM; in the test on HCC-2998 colon, 31.6 µM; in the test on NCI-H522 lung, 27.3 µM; with M14 melanoma, 34.2 µM; in the test with OVCAR-4 ovarian it was 40 µM; in the test on OVCAR-3 ovarian it was 28.1 µM. Besides, the TGI in the test on SF-295 CNS was 31.2 µM; with U251 CNS, 28.5 µM; in the test on HCT-15 colon it was 35.6 µM.
Turning to `O=C(CSc1nc2c(n1Nc1ccccc1)-c1ccccc1SC2)Nc1nc(-c2ccc(Cl)cc2)cs1`, the GI50 in the test on MOLT-4 leukemia was > 100 µM; in the test with SN12C renal, > 100 µM; in the test on HCC-2998 colon it was > 100 µM; with NCI-H522 lung it was 5.73 µM; in the test with M14 melanoma it was > 100 µM; in the test with OVCAR-3 ovarian, 7.34 µM. Besides, the results for the GI50 with SF-295 CNS, in the test on U251 CNS and in the test with HCT-15 colon were 11.3 µM, 9.91 µM and > 100 µM, respectively. The TGI with MOLT-4 leukemia, in the test with SN12C renal, in the test with HCC-2998 colon, in the test on NCI-H522 lung, in the test with M14 melanoma and with OVCAR-3 ovarian was > 100 µM in each case. For the same molecule, the figures for the TGI in the test with SF-295 CNS, with U251 CNS and with HCT-15 colon were 33.5 µM, 88.2 µM and > 100 µM, respectively.
